In US20020182260A1, “Anti-inflammatory agents and methods for their preparation and use” (Cellegy Pharmaceuticals, Inc., priority 1998, published 2002):
pIC50: −log10 of the molar value. Where two headings read alike, the source gives them in different places.

How the values were obtained:
Assay type in all cases: cell-based
[1] = tested on: T-lymphocytes isolated from mouse thymus; experiment: T-lymphocyte proliferation assay (Con A, [3H]thymidine incorporation); settings: read-out: IC50, suppression of T-cell proliferation
Description: T-lymphocytes were isolated from mouse thymus by standard methods, and suspended in DMEM (see, e.g., Mishell B B and Shiigi S M, eds., “Cell Proliferation” in Selected Methods in Cellular Immunology, V, XXIX, W. H. Freeman Co., San Francisco, Calif. pp. 153-160, 1980 and Dayton et al. (1992) Mol. Pharmacol. 41: 671-676). A total of 5×10^6 cells/ml were incubated overnight at 37° C. in the presence of 3 μg/ml Con A to assess stimulation (positive score, related to 10 U/ml of rat interleukin-2) or suppression (negative score, related to control) of cell proliferation. Test substances were evaluated under these conditions at a pre-defined concentration. After overnight incubation, 2 μCi [^3H]thymidine was added to each well. Cells were harvested after an additional 48 hours incubation, and thymidine incorporation assessed by liquid scintillation counting.
All 40 fractions were subsequently tested in the ConA-induced T-cell proliferation assay, the same assay described in Example 4. Fractions providing greater than or equal to 40% suppression are considered active.

[2] = tested on: B-lymphocytes isolated from mouse spleen; experiment: B-lymphocyte proliferation assay (LPS, [3H]thymidine incorporation); settings: B-cell, read-out: IC50, suppression of B-cell proliferation
Description: B-lymphocytes were isolated from mouse spleen by standard methods, and suspended in DMEM. A total of 10^6 cells/ml were incubated overnight at 37° C. in the presence of 1 μg/ml lipopolysaccharide (LPS) to assess stimulation (positive score, related to control) or suppression (negative score, related to control) of cell proliferation. Test substances were evaluated under these conditions at a pre-defined concentration. After overnight incubation, 2 μCi [^3H]thymidine was added to each well. Cells were harvested. after an additional 48 hours incubation, and thymidine incorporation assessed by liquid scintillation counting.

[3] = tested on: IL-2 production from human PBMC; experiment: inhibition of PHA-stimulated IL-2 production; settings: PHA 20 μg/mL, 48 hours, positive control
Description: In this example, the ability of lanolin fractions to inhibit PHA-stimulated IL-2 production from human peripheral blood mononuclear cells (PBMCs) was assayed. IL-2 production from human PBMC was stimulated by phytohemagglutanin (20 μg/mL) based on a procedure described by Konno et al. (Konno S. I. et al. “Inhibition of Cytokine Production from Human Peripheral Blood Leukocytes by Anti-allergic Agents in vitro.” Eur. J. Pharmacol, 264:265-268, 1994) wherein IL-2 levels were measured 48 hours post-stimulation with a commercially available enzyme-immuno assay (EIA) kit and spectrophotometric measurements were performed with a microplate reader (MRX, Dynatech.) The various compositions of the present invention were tested at final concentrations of […], in duplicate. Dexamethasone was used as the positive control in these studies; the IC50 of dexamethasone was 5 nM. The levels of suppression caused by the test compounds are expressed as the percent decrease relative to the vehicle control values.

[4] = tested on: TNF-α production by human PBMCs; experiment: inhibition of LPS-stimulated TNF-α production; settings: PBMC, LPS 1 μg/mL, 24 hours, positive control
Description: TNF-α production by human PBMCs was stimulated using lipopolysaccharide (1 μg/mL) based on a procedure by Schindler et al. (Schindler R et al. Correlations and Interactions in the Production of Interleukin (IL)-6, IL-1, and Tumor Necrosis Factor (TNF) in Human Blood Mononuclear Cells: IL-6 Suppresses IL-1 and TNF. Blood, 75:40-47, 1990). The levels of TNF-α were measured 24 hours following LPS stimulation with a commercially available enzyme-immuno assay (EIA) kit and spectrophotometric measurements were performed with a microplate reader (MRX, Dynatech). The compositions of the present invention were tested in this study were 1, 10, and 50 μg/mL in duplicate. […] The suppression caused by test compounds is expressed as the percent decrease relative to the vehicle control value.

O=P1(N(CCCl)CCCl)NCCCO1 (stereo not drawn) [cyclophosphamide]
pIC50 [1]: < 5.00
pIC50 [2]: < 5.00

Cn1cnc([N+](=O)[O-])c1Sc1ncnc2nc[nH]c12 [azathioprine]
pIC50 ([1]; positive controls): < 5.00
pIC50 ([2]; compounds known to suppress): < 5.00

C[C@@H]1C[C@H]2[C@@H]3CCC4=CC(=O)C=C[C@]4(C)[C@@]3(F)[C@@H](O)C[C@]2(C)[C@@]1(O)C(=O)CO [dexamethasone]
pIC50 [3]: 8.30
pIC50 [4]: ~7.80
